Experimental data taken from publication PMC3361616 (European Journal of Medicinal Chemistry, 2012).
Where a name gives a salt, the structure may show the parent alone.

What was measured:
[1] = molecular target: serotonin transporter (SERT) (Homo sapiens, UniProt P31645); experiment: NIMH-PDSP radioligand binding, SERT
[2] = molecular target: T1, 5HT1A receptor (Homo sapiens, UniProt P08908); experiment: NIMH-PDSP radioligand binding, 5HT1A; settings: for fold increase in binding affinity to the 5HT1A receptor: over compound 8
T1 sequence (P08908 1-422): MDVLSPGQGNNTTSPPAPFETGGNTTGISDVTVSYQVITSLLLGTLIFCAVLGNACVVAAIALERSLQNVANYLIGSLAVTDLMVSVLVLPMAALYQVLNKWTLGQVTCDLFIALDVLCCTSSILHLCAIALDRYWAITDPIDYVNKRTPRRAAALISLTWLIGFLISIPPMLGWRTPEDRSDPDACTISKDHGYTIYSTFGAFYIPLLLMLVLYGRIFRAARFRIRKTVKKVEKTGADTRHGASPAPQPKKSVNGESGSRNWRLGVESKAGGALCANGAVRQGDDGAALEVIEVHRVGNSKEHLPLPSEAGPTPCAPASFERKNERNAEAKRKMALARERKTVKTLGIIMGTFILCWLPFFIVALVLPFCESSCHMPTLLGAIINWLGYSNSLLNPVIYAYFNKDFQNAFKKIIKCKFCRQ

[3] = molecular target: T2, D4 receptor (DAD4) (Homo sapiens, UniProt P21917); experiment: NIMH-PDSP radioligand binding, DAD4
T2 sequence (P21917 1-419): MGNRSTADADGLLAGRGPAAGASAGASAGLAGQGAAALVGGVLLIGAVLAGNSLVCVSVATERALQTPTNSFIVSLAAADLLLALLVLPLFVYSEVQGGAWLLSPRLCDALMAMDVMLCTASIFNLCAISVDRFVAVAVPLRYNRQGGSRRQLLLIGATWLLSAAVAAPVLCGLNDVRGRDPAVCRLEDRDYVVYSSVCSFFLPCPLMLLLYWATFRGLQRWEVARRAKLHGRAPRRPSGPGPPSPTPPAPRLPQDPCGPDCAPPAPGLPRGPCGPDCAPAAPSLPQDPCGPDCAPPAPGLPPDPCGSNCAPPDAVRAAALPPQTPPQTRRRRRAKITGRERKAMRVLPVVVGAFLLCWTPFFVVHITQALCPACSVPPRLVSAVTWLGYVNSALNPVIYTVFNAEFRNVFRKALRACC

Chain of serotonin transporter (SERT) (P31645 whole entry, species assumed): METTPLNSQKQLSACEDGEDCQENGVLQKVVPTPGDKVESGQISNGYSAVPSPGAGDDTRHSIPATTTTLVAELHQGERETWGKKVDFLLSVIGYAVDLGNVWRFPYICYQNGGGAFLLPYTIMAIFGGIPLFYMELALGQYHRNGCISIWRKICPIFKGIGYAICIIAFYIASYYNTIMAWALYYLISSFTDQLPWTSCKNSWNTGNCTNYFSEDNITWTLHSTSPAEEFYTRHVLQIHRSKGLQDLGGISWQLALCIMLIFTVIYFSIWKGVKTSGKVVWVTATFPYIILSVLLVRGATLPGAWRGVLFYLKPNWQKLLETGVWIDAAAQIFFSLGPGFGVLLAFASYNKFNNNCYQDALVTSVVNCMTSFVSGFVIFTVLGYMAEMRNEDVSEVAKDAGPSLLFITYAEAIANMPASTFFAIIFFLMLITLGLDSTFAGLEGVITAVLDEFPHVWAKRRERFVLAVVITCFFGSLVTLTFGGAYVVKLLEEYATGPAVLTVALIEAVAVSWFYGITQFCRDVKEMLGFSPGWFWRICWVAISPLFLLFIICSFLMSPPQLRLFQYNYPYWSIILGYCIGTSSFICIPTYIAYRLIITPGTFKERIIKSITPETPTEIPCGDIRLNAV

Compound: Clc1ccc(N2CCN(CCCCc3nc4ccccc4s3)CC2)cc1 [Compound 8, 2-(4-(4-(4-Chlorophenyl)piperazin-1-yl)butyl)benzo[d]thiazole]
- fold decrease in binding at the SERT site ([1]; compared with compound 4): 2.6 fold
- fold increase in binding to the 5HT1A receptor ([2]; compared with compound 4): ~3 fold

Compound: c1ccc2c(c1)CCN(CCCCc1nc3ccccc3s1)C2 [Compound 11, 2-(4-Benzo[d]thiazol-2-yl-butyl)-1,2,3,4-tetrahydro-isoquinoline p-toluenesulfonate]
- fold increase in binding affinity to the 5HT1A receptor [2]: about 18 fold

Compound: O=C(CCCCN1CCN(c2ccc(Cl)cc2)CC1)c1nc2ccccc2s1 [Compound 20, 1-(Benzo[d]thiazol-2-yl)-5-(4-(4-chlorophenyl)piperazin-1-yl)pentan-1-one hydrochloride]
- fold enhancement of binding to SERT ([1]; compared with compound 8): over 2 fold
- Ki [3]: 0.1 ± 0.01 µM
- fold increase in binding affinity to the 5HT1A receptor [2]: over 3 fold

Compound: O=C(CCCCN1CCC(c2ccccc2)CC1)c1nc2ccccc2s1 [Compound 23, 1-(Benzo[d]thiazol-2-yl)-5-(4-phenyl-piperidin-1-yl)-pentan-1-one hydrochloride]
- fold decrease in binding affinity at the 5HT1A receptor ([2]; compared with compound 22): 2 fold
